Experimental findings from patent publication US20230150929A1, “SELECTIVE NON-CYCLIC NUCLEOTIDE ACTIVATORS FOR THE CAMP SENSOR EPAC1” (The Board of Regents of The University of Texas System, priority 2020, published 2023) are described below.

In assay [1] the target is T1, EPAC1 (Homo sapiens, UniProt O95398).
T1 sequence (O95398 1-923): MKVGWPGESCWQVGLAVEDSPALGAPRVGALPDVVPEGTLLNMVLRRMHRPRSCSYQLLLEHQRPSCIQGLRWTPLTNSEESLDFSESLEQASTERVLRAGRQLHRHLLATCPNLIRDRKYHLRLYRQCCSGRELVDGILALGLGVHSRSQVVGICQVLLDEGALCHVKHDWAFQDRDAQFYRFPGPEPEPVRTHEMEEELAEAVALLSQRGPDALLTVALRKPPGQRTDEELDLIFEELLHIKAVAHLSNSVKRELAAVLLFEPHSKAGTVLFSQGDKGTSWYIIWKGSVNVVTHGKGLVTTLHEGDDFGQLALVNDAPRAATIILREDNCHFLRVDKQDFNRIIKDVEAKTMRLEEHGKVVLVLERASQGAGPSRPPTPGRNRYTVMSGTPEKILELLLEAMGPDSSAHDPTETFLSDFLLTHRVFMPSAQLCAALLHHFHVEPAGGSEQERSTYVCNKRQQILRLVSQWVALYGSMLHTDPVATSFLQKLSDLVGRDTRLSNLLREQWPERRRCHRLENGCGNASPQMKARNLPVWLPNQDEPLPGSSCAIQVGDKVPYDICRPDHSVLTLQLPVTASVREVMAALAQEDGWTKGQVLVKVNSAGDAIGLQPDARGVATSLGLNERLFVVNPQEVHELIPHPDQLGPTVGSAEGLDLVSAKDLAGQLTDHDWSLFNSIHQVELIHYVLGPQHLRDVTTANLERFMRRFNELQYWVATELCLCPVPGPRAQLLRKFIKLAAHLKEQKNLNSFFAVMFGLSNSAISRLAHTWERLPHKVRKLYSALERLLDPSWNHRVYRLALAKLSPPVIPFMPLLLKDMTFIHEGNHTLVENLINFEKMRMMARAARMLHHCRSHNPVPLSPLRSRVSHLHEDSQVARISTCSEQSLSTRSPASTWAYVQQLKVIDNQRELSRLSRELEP
Nature of the assay: In vitro GEF screen (EPAC1 activation assay). Details: expressed in transfected cells; host or cells: U2OS cells (from Professor Holger Rehmann, University of Utrecht). Conditions: 10 µM, FIG. 6. It is filed as biochemical. As to the method: FIGS. 6A-B. Identification of compounds including 25g (PW0381) 25q (PW0521) 25n (PW0577), 25u (PW0606), 25e (PW0624) and 25f (PW0625) as EPAC1 activators in an in vitro GEF screen. […] Selected compounds have been highlighted as indicated.
(§1) Series Expansion and EPAC1 vs EPAC2 Selectivity. GEF assay was used to further screen all newly synthesis analogues at 10 µM, to identify additional activating compounds to expand the series of EPAC1 agonists (FIG. 6). […] Having now identified an expanded exemplary series of compounds as potential EPAC1 activators the ability of 25e, 25f, 25g, 25n and 25u to activate EPAC1 and EPAC2 in cellular Rap1 activation assays (FIG. 7) were compared. For these U2OS cells transfected with either EPAC1 or EPAC2 (FIG. 7) was used. […] Densitometry was carried out on all immunoblots and the ratio of EPAC1 to EPAC2 activation was calculated and presented in a bar graph in FIG. 8.

For the next assay, the target named is T2, EPAC1-CNBD (Homo sapiens, UniProt O95398).
T2 sequence (O95398 169-318 isoform O95398-3): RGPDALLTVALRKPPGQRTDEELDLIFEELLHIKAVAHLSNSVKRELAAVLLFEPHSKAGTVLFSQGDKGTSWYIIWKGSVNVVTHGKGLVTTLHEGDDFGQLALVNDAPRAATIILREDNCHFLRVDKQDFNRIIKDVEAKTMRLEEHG
As to the kind of experiment: 8-NBD-cAMP competition binding assay, EPAC1-CNBD. Conditions: for RFI (%) (relative fluorescence intensity), Table 4: compound 10 µM, EPAC1-CNBD 0.8 µM, 8-NBD-cAMP 62.5 nM, mean ± SEM, lower RFI = stronger binding; for IC50 values as EPAC1 binders (in words): summary statement.

Assay [2] addresses T1, EPAC1. As to the kind of experiment: Active Rap1 pull-down in U2OS cells stably transfected with EPAC1. Details: expressed in transfected cells; host or cells: U2OS cells (from Professor Holger Rehmann, University of Utrecht). The format is cell-based. The method, then: as §1
Active Rap1 Pull-down. U2OS cells (from Professor Holger Rehmann, University of Utrecht) stably transfected with EPAC1 or EPAC2 were cultured in 6-well plates in DMEM, high glucose, supplemented with 10% (v/v) FBS, 1% (v/v) GlutaMAX, 1% (v/v) Penicillin-Streptomycin and 2 mg/l puromycin (to ensure selection of stable transfectants). 80% confluent cells were starved in culture medium with reduced FBS concentration (0.5 %) for 16 h and then stimulated for 10 min with either vehicle, 100 µM of studied compounds, or 50 µM of 2 in case of U2OS-EPAC1 or 100 µM of compound 4 for U2OS-EPAC2. Cells were then rinsed with ice-cold PBS and lysed in 0.5 ml cell lysis buffer (Cell Signaling Technologies) supplemented with 10 mM MgCl2 and 1 mM PMSF, followed by clearing the lysates by centrifugation. Cell lysates were incubated for 1 h (4° C., gentle agitation) with 40 µg GST-RalGDS-RBD immobilized on Glutathione Sepharose 4B (GE Healthcare) to selectively capture GTP-bound Rap1. Later on, the glutathione resin was separated from supernatant by centrifugation, washed three times with cell lysis buffer, then resuspended in 2x SDS sample loading buffer and denatured for 5 min at 95° C.
(§2) SDS-PAGE and Western Blotting. Samples were prepared by mixing equal volumes of cell lysate and 2x SDS sample loading buffer and denaturing for 5 min at 95° C., unless indicated otherwise. Protein samples were separated by SDS-PAGE on 10% (v/v) polyacrylamide gels, for EPAC1 and VASP, or on 12.5% (v/v), for Rap1, and then transferred to nitrocellulose membranes. Membranes were then blocked for 1 h at room temperature in 5% (w/v) non-fat dry milk or 5% (w/v) BSA in Tris-buffered saline containing 0.1% (v/v) Tween 20, followed by an overnight incubation with primary antibody diluted in blocking buffer at 4° C. Subsequently, the membranes were incubated with appropriate horseradish peroxidase-conjugated secondary antibodies for 1 h at room temperature. For signal detection the SuperSignal West Pico PLUS Chemiluminescent Substrate (Thermo Scientific) was used. Images were acquired using the Fusion FX7 camera platform (Vilber). Densitometry was performed with ImageJ.

Another assay concerns PKA. Nature of the assay: PKA activation (VASP phosphorylation, western blot) in U2OS-EPAC1 cells. The format is cell-based. Particulars: 100 µM test compound, FIG. 5. The method, then:
FIG. 5. PKA activation results of representative newly discovered EPAC1 agonists. U2OS cells stably transfected with EPAC1 were treated with 100 µM of test compounds, cyclic nucleotide EPAC1 agonist 2 or 10 µM of forskolin and rolipram (F/R), cyclic AMP elevating agents, as a positive control. Active, phosphorylated VASP (P-VASP) was visualized using a phospho-specific, anti-VASP antibody. None of the test compounds promoted VASP phosphorylation in cells.
PKA and GPCR Selectivity. To investigate the EPAC selectivity of these EPAC agonists, compounds 25g, 25n and 25q were selected for further PKA activation studies, and the results are shown in FIG. 5. PKA activation was assessed by monitoring phosphorylation state of a downstream PKA effector, vasodilator-stimulated phosphoprotein (VASP).
as §2
(A western blot detects proteins with antibodies after separation by electrophoresis.)

As for `Nc1ccc(S(=O)(=O)NC(=O)COc2ccc3ccccc3c2)cc1F` [Compound 25f, N-((4-Amino-3-fluorophenyl)sulfonyl)-2-(naphthalen-2-yloxy)acetamide], on EPAC1 [1], the “EPAC1 activity in GEF assay” value is “promote EPAC1 activity more effectively than 25g, 25n and 25q”. Moreover, at EPAC1-CNBD, the “RFI (%) (relative fluorescence intensity), Table 4” value was 81 ± 8% and the “IC50 values as EPAC1 binders (in words)” value was “low micromolar to sub-micromolar”. Besides, the “selectivity: ability to activate EPAC1 over EPAC2 (ratio of EPAC1 to EPAC2 activation)” value at EPAC1 [2] (densitometry of Rap1-GTP immunoblots, U2OS-EPAC1 vs U2OS-EPAC2, FIG. 8) is recorded as “best selectivity”. The “PKA activation (VASP phosphorylation)” value in the assay on PKA is reported as “unable to activate PKA”.

For `Cc1cc(Nc2ncccc2C(F)(F)F)cc(S(=O)(=O)NC(=O)COc2ccc3ccccc3c2)c1` [Compound 25u, N-((3-Methyl-5-((3-(trifluoromethyl)pyridin-2-yl)amino)phenyl)sulfonyl)-2-(naphthalen-2-yloxy)acetamide], the “EPAC1 activity in GEF assay” value at EPAC1 [1] is “promote EPAC1 activity more effectively than 25g, 25n and 25q”. On EPAC1-CNBD, the “RFI (%) (relative fluorescence intensity), Table 4” value is on record as 56 ± 6% and the “IC50 values as EPAC1 binders (in words)” value is “low micromolar to sub-micromolar”. Also, the “Rap1 activation in EPAC1 cells” value on EPAC1 [2] (U2OS-EPAC1, 100 µM compound, 10 min, FIG. 7) was “roughly equivalent to the positive control”. The “PKA activation (VASP phosphorylation)” value in the assay on PKA is “unable to activate PKA”.
